Test results published in ChEMBL document CHEMBL4371076 (J Med Chem, 2019).
Calls of active or inactive are those of the source.

Tests used:
Cytochrome P450 2C9 [1] = target: T1, Cytochrome P450 2C9 (Homo sapiens, UniProt P11712); experiment: Time-dependant inhibition of CYP2C9 in human liver microsomes; assay type: ADME
Cytochrome P450 3A4 = Cytochrome P450 3A4 (Homo sapiens, UniProt P08684); experiment: Time-dependant inhibition of CYP3A4 in human liver microsomes; assay type: ADME
[2] = target: T2, Sodium channel protein type 9 subunit alpha (Homo sapiens, UniProt Q15858); experiment: Inhibition of recombinant human Nav1.7 expressed in HEK293 cells assessed as association time constant at -70 mV holding potential by patch clamp electrophysiology method; assay type: cell-based
Target sequence in this assay (Q15858 whole entry, looked up): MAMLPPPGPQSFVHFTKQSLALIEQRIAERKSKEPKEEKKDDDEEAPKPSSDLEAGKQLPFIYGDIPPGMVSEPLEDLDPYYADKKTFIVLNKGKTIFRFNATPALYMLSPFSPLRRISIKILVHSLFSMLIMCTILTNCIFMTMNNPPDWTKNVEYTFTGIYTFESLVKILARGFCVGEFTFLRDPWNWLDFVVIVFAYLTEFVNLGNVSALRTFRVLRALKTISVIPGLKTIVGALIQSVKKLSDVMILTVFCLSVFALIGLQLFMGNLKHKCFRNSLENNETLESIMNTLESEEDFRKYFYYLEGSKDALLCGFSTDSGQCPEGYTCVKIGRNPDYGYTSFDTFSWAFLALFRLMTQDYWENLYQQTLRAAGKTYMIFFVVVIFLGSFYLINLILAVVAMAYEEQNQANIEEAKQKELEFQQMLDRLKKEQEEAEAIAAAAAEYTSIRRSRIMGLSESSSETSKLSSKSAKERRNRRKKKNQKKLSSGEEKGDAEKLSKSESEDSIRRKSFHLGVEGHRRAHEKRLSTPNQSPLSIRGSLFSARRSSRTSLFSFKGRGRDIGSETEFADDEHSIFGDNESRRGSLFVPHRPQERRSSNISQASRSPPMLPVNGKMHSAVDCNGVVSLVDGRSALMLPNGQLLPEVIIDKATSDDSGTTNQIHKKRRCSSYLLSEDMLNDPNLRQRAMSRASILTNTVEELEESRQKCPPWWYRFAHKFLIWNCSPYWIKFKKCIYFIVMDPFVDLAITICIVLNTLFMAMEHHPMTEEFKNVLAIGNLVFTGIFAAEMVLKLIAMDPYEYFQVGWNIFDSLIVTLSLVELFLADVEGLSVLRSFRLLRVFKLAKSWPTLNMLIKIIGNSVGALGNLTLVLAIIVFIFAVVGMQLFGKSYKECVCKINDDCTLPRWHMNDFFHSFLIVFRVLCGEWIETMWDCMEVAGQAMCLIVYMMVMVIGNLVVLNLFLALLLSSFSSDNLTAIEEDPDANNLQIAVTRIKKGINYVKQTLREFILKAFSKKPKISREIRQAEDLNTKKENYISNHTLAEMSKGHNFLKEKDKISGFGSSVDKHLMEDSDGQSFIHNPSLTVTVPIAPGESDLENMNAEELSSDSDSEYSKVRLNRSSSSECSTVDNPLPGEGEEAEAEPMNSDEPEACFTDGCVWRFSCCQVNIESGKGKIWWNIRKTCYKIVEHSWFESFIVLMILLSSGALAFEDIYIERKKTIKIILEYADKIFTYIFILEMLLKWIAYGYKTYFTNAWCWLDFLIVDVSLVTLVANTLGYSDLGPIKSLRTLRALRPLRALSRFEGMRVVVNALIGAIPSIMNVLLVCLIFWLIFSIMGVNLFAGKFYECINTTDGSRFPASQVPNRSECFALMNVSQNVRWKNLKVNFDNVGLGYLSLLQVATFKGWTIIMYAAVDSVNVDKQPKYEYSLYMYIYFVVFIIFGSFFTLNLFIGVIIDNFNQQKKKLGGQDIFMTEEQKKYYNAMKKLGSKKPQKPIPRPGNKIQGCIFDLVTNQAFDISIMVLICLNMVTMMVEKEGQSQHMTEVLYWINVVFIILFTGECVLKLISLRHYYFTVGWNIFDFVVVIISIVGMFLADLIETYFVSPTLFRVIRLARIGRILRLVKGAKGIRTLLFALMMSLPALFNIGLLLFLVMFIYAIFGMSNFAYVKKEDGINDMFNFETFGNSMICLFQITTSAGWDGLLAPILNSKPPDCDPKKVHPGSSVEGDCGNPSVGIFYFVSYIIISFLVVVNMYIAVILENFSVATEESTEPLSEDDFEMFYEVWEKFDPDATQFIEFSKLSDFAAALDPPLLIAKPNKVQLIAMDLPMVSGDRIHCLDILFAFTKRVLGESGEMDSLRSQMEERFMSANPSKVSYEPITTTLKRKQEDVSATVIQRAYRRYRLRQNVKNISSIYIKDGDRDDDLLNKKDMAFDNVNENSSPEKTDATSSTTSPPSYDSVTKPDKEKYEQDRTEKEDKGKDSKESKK

Mus musculus [3] = experiment: Analgesic activity in CD1 mouse model of CFA-induced thermal hyperalgesia assessed as reduction in thermal response latency at 30 mg/kg, ip administered 72 hrs post CFA challenge and measured at 180 mins post dose by Hargreave's test; assay type: functional, organism-based
[4] = target: T2, Sodium channel protein type 9 subunit alpha; experiment: Inhibition of recombinant human Nav1.7 expressed in HEK293 cells at -70 mV holding potential by patch clamp electrophysiology method; assay type: cell-based
Target sequence in this assay (Q15858 whole entry): as the sequence (Q15858 whole entry, looked up) above

[5] = Efflux ratio of permeability in human Caco2 cells; assay type: ADME, cell-based; conditions: Caco-2
[6] = Fraction unbound in human plasma; assay type: ADME, cell-free
Cytochrome P450 2C9 [7] = target: T1, Cytochrome P450 2C9; experiment: Inhibition of CYP2C9 in human liver microsomes; assay type: ADME
Cytochrome P450 2C19 [8] = target: T3, Cytochrome P450 2C19 (Homo sapiens, UniProt P33261); experiment: Time-dependant inhibition of CYP2C19 in human liver microsomes; assay type: ADME
T3 sequence (P33261 whole entry): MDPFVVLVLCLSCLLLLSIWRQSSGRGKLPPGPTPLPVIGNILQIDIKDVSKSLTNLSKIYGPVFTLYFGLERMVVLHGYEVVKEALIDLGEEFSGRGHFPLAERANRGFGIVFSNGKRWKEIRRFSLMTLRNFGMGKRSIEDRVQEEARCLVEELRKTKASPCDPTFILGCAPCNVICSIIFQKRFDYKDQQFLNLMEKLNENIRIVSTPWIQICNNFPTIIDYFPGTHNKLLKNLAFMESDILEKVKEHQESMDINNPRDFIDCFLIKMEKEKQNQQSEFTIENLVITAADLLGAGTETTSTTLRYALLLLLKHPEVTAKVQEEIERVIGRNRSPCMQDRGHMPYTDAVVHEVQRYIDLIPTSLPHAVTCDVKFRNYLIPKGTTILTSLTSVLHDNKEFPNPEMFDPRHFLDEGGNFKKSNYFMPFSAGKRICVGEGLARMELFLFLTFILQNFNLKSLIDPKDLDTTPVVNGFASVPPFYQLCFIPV

[9] = Ratio of unbound plasma concentration in CD1 mouse model of CFA-induced thermal hyperalgesia at 3 to 30 mg/kg, ip to IC50 for recombinant mouse Nav1.7 expressed in HEK293 cells at -70 mV holding potential by patch clamp electrophysiology method; assay type: ADME, organism-based; conditions: in vivo
[10] = target: T2, Sodium channel protein type 9 subunit alpha; experiment: Inhibition of human Nav1.7 expressed in HEK293 cells after 600 secs at -60 mV holding potential by ion works barracuda population patch clamp method; assay type: cell-based
Target sequence in this assay (Q15858 whole entry): as the sequence (Q15858 whole entry, looked up) above

[11] = Permeability of the compound at pH 5.5 by PAMPA; assay type: ADME; conditions: read-out: permeability
[12] = Permeability from basolateral to apical side in human Caco2 cells; assay type: ADME, cell-based; conditions: Caco-2, read-out: permeability
[13] = Metabolic stability in mouse liver microsomes assessed as parent compound remaining at 0.5 uM after 10 mins; assay type: ADME, Microsome; conditions: read-out: Stability
[14] = Plasma concentration in CD1 mouse model of CFA-induced thermal hyperalgesia at 3 to 30 mg/kg, ip; assay type: ADME, organism-based; conditions: in vivo
[15] = Ratio of fraction unbound in mouse DRG neurons to IC50 for mouse DRG Nav1.7 at -70 mV holding potential by patch clamp electrophysiology method
Cytochrome P450 2B6 = target: T4, Cytochrome P450 2B6 (Homo sapiens, UniProt P20813); experiment: Inhibition of CYP2B6 in human liver microsomes; assay type: ADME
T4 sequence (P20813 whole entry): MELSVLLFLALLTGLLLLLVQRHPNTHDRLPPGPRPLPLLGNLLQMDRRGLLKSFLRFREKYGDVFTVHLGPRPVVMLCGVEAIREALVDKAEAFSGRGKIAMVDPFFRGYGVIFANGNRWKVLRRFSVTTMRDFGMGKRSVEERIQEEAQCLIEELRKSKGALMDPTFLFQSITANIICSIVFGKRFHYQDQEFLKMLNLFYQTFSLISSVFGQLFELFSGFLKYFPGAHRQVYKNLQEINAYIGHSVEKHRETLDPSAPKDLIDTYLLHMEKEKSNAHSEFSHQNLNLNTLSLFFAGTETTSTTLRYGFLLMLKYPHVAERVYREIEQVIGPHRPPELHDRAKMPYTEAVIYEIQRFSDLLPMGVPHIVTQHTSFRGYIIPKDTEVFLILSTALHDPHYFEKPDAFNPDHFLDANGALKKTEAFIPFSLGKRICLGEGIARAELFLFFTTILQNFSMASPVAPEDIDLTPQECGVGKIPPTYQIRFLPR

[16] = Metabolic stability in human liver microsomes assessed as parent compound remaining at 0.5 uM after 10 mins; assay type: ADME, Microsome; conditions: read-out: Stability
Cytochrome P450 2C19 [17] = target: T3, Cytochrome P450 2C19; experiment: Inhibition of CYP2C19 in human liver microsomes; assay type: ADME
[18] = Permeability of the compound at pH 7.4 by PAMPA; assay type: ADME; conditions: read-out: permeability
Mus musculus [19] = experiment: Reduction in mechanoreceptor-mediated afferent transmission in mouse assessed as effect on sural nerve mechanosensitivity by measuring decrease in mechanically elicited afferent firing at 30 mg/kg, ip measured at 90 to 120 mins post dose at 98 to 980 mN threshold pressure; assay type: functional, organism-based
Cytochrome P450 2C8 = target: T5, Cytochrome P450 2C8 (Homo sapiens, UniProt P10632); experiment: Inhibition of CYP2C8 in human liver microsomes; assay type: ADME
T5 sequence (P10632 whole entry): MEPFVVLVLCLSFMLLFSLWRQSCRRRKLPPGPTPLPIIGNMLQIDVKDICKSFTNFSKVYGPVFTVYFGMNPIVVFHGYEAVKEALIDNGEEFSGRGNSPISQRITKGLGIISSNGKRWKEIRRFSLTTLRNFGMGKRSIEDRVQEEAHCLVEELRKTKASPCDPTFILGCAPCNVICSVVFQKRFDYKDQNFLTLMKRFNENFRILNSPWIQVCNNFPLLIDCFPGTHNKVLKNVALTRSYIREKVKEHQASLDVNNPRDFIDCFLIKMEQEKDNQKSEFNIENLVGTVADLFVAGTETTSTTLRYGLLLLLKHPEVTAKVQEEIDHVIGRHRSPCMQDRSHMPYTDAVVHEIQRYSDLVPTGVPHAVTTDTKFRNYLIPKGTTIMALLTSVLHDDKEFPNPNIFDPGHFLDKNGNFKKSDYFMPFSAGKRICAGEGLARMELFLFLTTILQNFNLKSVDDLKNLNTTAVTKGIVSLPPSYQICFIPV

[20] = Permeability from apical to basolateral side in human Caco2 cells; assay type: ADME, cell-based; conditions: Caco-2, read-out: permeability
Cytochrome P450 2D6 = Cytochrome P450 2D6 (Homo sapiens, UniProt P10635); experiment: Time-dependant inhibition of CYP2D6 in human liver microsomes; assay type: ADME
Sequence of Cytochrome P450 2D6 (P10635 whole entry): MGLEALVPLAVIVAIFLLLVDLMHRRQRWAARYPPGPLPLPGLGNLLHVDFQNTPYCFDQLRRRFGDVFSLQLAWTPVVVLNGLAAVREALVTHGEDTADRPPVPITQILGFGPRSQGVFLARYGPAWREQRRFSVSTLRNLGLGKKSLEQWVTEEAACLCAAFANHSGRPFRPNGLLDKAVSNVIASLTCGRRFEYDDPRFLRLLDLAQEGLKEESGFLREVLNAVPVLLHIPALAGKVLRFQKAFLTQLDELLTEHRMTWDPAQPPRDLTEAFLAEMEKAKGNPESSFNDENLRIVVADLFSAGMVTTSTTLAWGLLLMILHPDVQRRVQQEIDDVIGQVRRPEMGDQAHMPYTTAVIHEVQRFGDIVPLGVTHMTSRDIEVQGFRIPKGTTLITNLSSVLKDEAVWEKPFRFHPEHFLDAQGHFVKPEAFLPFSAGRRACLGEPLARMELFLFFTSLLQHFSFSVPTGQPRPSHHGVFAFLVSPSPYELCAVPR

[21] = target: T2, Sodium channel protein type 9 subunit alpha; experiment: Inhibition of recombinant human Nav1.7 expressed in HEK293 cells assessed as dissociation time constant at -120 mV holding potential by patch clamp electrophysiology method; assay type: cell-based
Target sequence in this assay (Q15858 whole entry, looked up): as the sequence (Q15858 whole entry, looked up) above

[22] = Metabolic stability in rat liver microsomes assessed as parent compound remaining at 0.5 uM after 10 mins; assay type: ADME, Microsome; conditions: read-out: Stability
[23] = Plasma concentration in mouse model of mechanoreceptor-mediated afferent transmission at 30 mg/kg, ip after 2 hrs; assay type: ADME, organism-based
[24] = Fraction unbound in mouse trigeminal ganglia neuron tissue; assay type: ADME, tissue-based, Trigeminal ganglion

T1 sequence (P11712 whole entry): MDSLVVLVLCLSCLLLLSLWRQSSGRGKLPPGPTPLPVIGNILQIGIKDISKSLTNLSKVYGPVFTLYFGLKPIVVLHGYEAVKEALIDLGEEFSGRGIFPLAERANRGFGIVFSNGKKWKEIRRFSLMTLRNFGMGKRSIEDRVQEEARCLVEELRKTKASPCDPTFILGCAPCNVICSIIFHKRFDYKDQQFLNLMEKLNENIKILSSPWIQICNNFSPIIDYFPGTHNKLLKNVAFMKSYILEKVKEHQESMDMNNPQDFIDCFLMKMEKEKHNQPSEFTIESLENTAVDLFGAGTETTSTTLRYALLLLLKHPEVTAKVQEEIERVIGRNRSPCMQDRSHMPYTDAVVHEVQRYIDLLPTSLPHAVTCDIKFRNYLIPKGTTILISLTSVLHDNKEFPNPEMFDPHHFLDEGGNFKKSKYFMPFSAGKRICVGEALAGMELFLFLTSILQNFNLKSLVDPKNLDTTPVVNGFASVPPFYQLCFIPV
Sequence of Cytochrome P450 3A4 (P08684 whole entry): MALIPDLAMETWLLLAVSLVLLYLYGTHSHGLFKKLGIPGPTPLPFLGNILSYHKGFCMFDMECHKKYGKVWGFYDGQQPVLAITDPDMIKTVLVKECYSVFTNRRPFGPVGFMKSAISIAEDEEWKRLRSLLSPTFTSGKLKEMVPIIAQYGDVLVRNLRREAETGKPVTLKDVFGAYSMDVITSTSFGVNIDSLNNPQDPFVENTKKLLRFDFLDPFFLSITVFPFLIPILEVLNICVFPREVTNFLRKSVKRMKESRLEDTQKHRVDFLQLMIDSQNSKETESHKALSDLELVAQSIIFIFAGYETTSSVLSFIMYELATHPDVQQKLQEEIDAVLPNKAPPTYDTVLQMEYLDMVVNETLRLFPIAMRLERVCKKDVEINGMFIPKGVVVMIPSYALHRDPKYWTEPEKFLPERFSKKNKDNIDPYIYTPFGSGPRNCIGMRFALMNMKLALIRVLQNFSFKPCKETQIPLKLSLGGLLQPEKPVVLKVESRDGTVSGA

Structure (SMILES)	TDI (Cytochrome P450 2C9 [1])	TDI (Cytochrome P450 3A4)	TIME [2] [h]	Activity (Mus musculus [3])	IC50 [4] [µM]	efflux ratio [5]	fraction unbound [6]	IC50 (Cytochrome P450 2C9 [7]) [µM]	TDI (Cytochrome P450 2C19 [8])	Ratio [9]	IC50 [10] [µM]	Papp [11] [nm/s]	Papp B→A [12] [nm/s]	remaining at 10 min, 0.5 µM [13] [%]	concentration [14] [µM]	Ratio [15]	IC50 (Cytochrome P450 2B6) [µM]	remaining at 10 min, 0.5 µM [16] [%]	IC50 (Cytochrome P450 2C19 [17]) [µM]	Papp [18] [nm/s]	further results
CC(C)COc1ccc(-c2cn(C)c3cc(C(=O)NS(C)(=O)=O)c(F)cc23)cn1	Not Active	Not Active	0.00336	inactive	0.025	3.1	0.008	27	Not Active	4 to 5	0.089	802	186	99	38	5.5	> 40	98	4	164	Activity (Mus musculus [19]): Active; IC50 (Cytochrome P450 2C8): 1 µM; Papp A→B [20]: 61 nm/s; TDI (Cytochrome P450 2D6): Not Active; TIME [21]: 0.0275 h; remaining at 10 min, 0.5 µM [22]: 98%; concentration at 2 h [23]: 57 µM; fraction unbound [24]: 0.069
CC(C)COc1ncc(-c2cn(C)c3cc(C(=O)NS(C)(=O)=O)ccc23)cc1Cl	Not Active	Not Active	0.00267	inactive	0.008	> 5.5	< 0.001	9.9	Not Active	4 to 5	0.108	443	168	100	63	8.7	9.7	95	28	216	Activity (Mus musculus [19]): Active; IC50 (Cytochrome P450 2C8): 1 µM; Papp A→B [20]: < 15 nm/s; TDI (Cytochrome P450 2D6): Not Active; TIME [21]: 0.0125 h; remaining at 10 min, 0.5 µM [22]: 66%; concentration at 2 h [23]: 89 µM; fraction unbound [24]: 0.035
